How the values were obtained:
[1] = target: T1, KLHDC2 (Homo sapiens (Human), UniProt Q9Y2U9); assay: Time-resolved fluorescence energy transfer (TR-FRET) assay with Bodipy-labeled ligand probe; type: binding
Description: The integration start was set to 100 μs, and the integration time was set to 200 μs. The number of flashes was fixed at 100.

[2] = target: T1, KLHDC2; assay: Sypro orange thermal stability (thermal shift) assay; type: binding
Experimental: To identify small molecules that bind to KLHDC2 the Sypro orange thermal stability assay was utilized. […] Assay solution containing 0.5 μM KLHDC2, 25 mM HEPES, 200 mM NaCl and 5% Sypro Orange pH 7.5 was added to a final volume of 20 ul and a final experimental ligand concentration of 50 uM. DMSO alone was included as a negative control and peptide sub2 was included as a positive control at 100 uM. The fluorescence of Sypro orange in each sample was measured on a Quantstudio 5 or a Quantstudio 6 at temperatures ranging from 23 to 75° C. at 0.05° C./second. Data reduction resulting in thermal stability (calculated using the Boltzmann and first derivative minima equations) was completed in the Thermo Scientific protein thermal shift software v1.4.

T1 sequence (Q9Y2U9 whole entry): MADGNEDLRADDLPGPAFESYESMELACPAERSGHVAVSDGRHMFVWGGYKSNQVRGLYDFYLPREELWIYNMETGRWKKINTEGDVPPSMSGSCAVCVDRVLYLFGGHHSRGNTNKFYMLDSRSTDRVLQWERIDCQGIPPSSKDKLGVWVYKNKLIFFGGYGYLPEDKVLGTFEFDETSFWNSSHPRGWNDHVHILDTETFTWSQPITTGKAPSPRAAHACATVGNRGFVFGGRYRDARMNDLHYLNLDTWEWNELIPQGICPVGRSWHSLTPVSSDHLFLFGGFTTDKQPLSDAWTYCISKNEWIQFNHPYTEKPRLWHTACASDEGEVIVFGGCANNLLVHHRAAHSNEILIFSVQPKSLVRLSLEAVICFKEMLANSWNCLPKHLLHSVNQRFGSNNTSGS

SMILES	IC50 ([1]; Table 1)	ΔTm (° C.) 50 μM ligand ([2]; Table 1, 0.5 μM KLHDC2)	IC50 ([1]; Table 2)	ΔTm (° C.) 50 μM ligand ([2]; Table 2, 0.5 μM KLHDC2)
O=C(O)CNC(=O)Cc1csc(-c2cccc3ccncc23)n1 [Compound 9, (2-(2-(Isoquinolin-8-yl)Thiazol-4-yl)Acetyl)Glycine]	20.3 µM	1.8 ± 0.0 °C	–	–
O=C(O)CNC(=O)Cc1csc(-c2cccc3cccnc23)n1 [Compound 11, (2-(2-(Quinolin-8-yl)Thiazol-4-yl)Acetyl)Glycine]	7.1 µM	2.7 ± 0.4 °C	–	–
O=C(O)CNC(=O)Cc1csc(-c2ccc3ccccc3c2F)n1 [Compound 13, (2-(2-(1-Fluoronaphthalen-2-yl)Thiazol-4-yl)Acetyl)Glycine]	1.8 µM	6.0 ± 0.2 °C	–	–
COCCOc1cccc2ccc(-c3nc(CC(=O)NCC(=O)O)cs3)cc12 [Compound 15A]	–	–	1.1 µM	4.3 ± 0.2 °C
O=C(O)CNC(=O)Cc1csc(-c2ccc3c(c2)NCCO3)n1 [Compound 27, (2-(2-(3,4-Dihydro-2H-Benzo[B][1,4]Oxazin-6-yl)Thiazol-4-yl)Acetyl)Glycine]	3 µM	–	–	–
O=C(O)CNC(=O)Cc1csc(-c2ccc3ccn(CCCN4CCNCC4)c3c2)n1 [Compound 24, (2-(2-(1-(3-(Piperazin-1-yl)Propyl)-1H-Indol-6-yl)Thiazol-4-yl)Acetyl)Glycine]	–	–	1.2 µM	–
COCOc1ccc(-c2nc(CC(=O)NCC(=O)O)cs2)c(Cl)c1 [i]	24.1 µM	3.52 ± 0.424 °C	–	–
O=C(O)CNC(=O)Cc1csc(-c2cccc3ccccc23)n1 [Compound 12, (2-(2-(Naphthalen-1-yl)Thiazol-4-yl)Acetyl)Glycine]	8.8 µM	3.7 ± 0.0 °C	–	–
COc1ccc2cc(-c3nc(CC(=O)NCC(=O)O)cs3)ccc2c1 [Compound 10, (2-(2-(6-Methoxynaphthalen-2-yl)Thiazol-4-yl)Acetyl)Glycine]	9.6 µM	3.9 ± 0.1 °C	–	–
O=C(O)CNC(=O)Cc1csc(-c2ccc3cccc(OCCN4CCNCC4)c3c2)n1 [Compound 19, (2-(2-(8-(2-(Piperazin-1-yl)Ethoxy)Naphthalen-2-yl)Thiazol-4-yl)Acetyl)Glycine]	–	–	1.6 µM	4.8 ± 0.0 °C
O=C(O)CNC(=O)Cc1csc(-c2ccc3ccccc3c2)n1 [Compound 8, (2-(2-(Naphthalen-2-yl)Thiazol-4-yl)Acetyl)Glycine]	3.9 µM	6.0 ± 0.0 °C	–	–
O=C(O)CNC(=O)Cc1csc(-c2ccc3cc[nH]c3c2)n1 [Compound 23, (2-(2-(1H-Indol-6-yl)Thiazol-4-yl)Acetyl)Glycine]	1.1 µM	–	–	–
COc1ccc2ccc(-c3nc(CC(=O)NCC(=O)O)cs3)cc2c1 [Compound 14, (2-(2-(7-Methoxynaphthalen-2-yl)Thiazol-4-yl)Acetyl)Glycine]	1.7 µM	4.3 ± 0.2 °C	–	–
